Reference: patent US20260364028A1, “COMBINATION TREATMENTS FOR DEPRESSION AND OTHER DISORDERS” (NEURAWELL THERAPEUTICS, priority 2023, published 2026)
Where two headings read alike, the source gives them in different places.

Legend:
Monoamine Oxidase MAO-B = target: T1, Monoamine Oxidase MAO-B (Homo sapiens, UniProt P27338); assay: Monoamine oxidase MAO-B inhibition enzyme assay (kynuramine, spectrofluorimetric); assay type: biochemical; conditions: for inhibition at 2 µM: read-out: % MAO-B inhibition
T1 construct: host or cells: insect cells (recombinant)
T1 sequence (P27338 1-520): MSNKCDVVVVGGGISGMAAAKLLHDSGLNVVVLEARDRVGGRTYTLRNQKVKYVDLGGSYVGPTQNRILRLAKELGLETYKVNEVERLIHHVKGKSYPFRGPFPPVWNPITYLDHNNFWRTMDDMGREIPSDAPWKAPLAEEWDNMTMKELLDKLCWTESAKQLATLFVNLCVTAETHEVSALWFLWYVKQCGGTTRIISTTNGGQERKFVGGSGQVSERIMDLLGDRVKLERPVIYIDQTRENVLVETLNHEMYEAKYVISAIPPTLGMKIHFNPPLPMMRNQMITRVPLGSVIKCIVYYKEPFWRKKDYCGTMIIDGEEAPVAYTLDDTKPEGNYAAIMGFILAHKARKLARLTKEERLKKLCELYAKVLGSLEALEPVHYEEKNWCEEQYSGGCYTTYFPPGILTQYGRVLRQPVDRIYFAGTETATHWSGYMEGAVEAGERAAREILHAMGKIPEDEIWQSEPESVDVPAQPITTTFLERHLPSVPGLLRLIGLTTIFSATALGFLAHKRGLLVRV

Monoamine Oxidase MAO-A = target: T2, Monoamine Oxidase MAO-A (Homo sapiens, UniProt P21397); assay: Monoamine oxidase MAO-A inhibition enzyme assay (kynuramine, spectrofluorimetric); assay type: biochemical; conditions: for interference with the inhibition of MAO-A by phenelzine (in words): beta blocker in presence of phenelzine […] nM and 150 nM; for inhibition at 2 µM / inhibitory activity of MAO-A (in words): beta blocker alone; for inhibitory activity of MAO-A (in words): significant = ≥50% inhibition
T2 construct: host or cells: insect cells (recombinant)
T2 sequence (P21397 1-527): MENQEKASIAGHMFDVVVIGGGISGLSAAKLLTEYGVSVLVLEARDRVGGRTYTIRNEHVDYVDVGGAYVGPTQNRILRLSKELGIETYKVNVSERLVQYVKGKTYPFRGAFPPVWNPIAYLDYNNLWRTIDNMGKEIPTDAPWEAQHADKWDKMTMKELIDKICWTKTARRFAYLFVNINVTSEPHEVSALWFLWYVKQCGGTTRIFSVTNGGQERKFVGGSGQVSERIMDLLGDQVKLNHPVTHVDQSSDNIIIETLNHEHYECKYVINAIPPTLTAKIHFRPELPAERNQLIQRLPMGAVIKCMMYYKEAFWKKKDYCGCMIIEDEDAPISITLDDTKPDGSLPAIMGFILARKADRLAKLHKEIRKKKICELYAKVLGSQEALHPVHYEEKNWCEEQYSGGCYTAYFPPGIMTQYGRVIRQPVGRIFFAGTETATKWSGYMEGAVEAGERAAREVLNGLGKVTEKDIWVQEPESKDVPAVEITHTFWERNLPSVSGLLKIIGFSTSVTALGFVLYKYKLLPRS

[1] = plasma, cited from earlier work
[2] = tested on: tyramine pressor response; conditions: cited from earlier work; for TSF High / TSF Low: literature-reported
[3] = tested on: systolic or diastolic blood pressure; conditions: cited from earlier work
depression = conditions: meta-analysis of 14 antidepressants and placebo; cited from earlier work
[4] = typical circumstances, no MAO inhibition; cited from earlier work
[5] = Selegiline 10 mg/d with placebo (no beta blocker)
[6] = Phenelzine 60 mg/d with placebo (no beta blocker)
[7] = Tranylcypromine 20 mg/d with placebo (no beta blocker)

Structure (SMILES) | half-life [1] | inhibitory activity of MAO-B (in words) (Monoamine Oxidase MAO-B) | interference with the inhibition of MAO-B by phenelzine (in words) (Monoamine Oxidase MAO-B) | inhibition at 2 µM (Monoamine Oxidase MAO-B) | interference with the inhibition of MAO-A by phenelzine (in words) (Monoamine Oxidase MAO-A) | inhibition at 2 µM (Monoamine Oxidase MAO-A; role: inhibitor) | inhibitory activity of MAO-A (in words) (Monoamine Oxidase MAO-A; role: inhibitor) | other results
Cc1cc(C(=O)NNCc2ccccc2)no1 [Isocarboxazide] |  |  |  |  |  |  |  | % MAO-B inhibition (Monoamine Oxidase MAO-B): 98%; % MAO-A inhibition (Monoamine Oxidase MAO-A; role: inhibitor, isocarboxazid 10 μM): 91%
CC(C)NCC(O)COc1cccc2[nH]ccc12 (centres unmarked) [Pindolol, 1-(Indol-4-yloxy)-3-(isopropylamino)-2-propanol] | 3 to 4 h | no significant inhibitory activity | no interference was observed | -5% | no interference was observed | -1% | no significant inhibitory activity | 
C#CCN(C)[C@H](C)Cc1ccccc1 [Selegiline] |  |  |  |  |  |  |  | half-life ([1]; human): approximately 10 hours; TSF High [2, 5]: 4; TSF Low [2, 5]: 3
COC(=O)CCc1ccc(OCC(O)CNC(C)C)cc1 (centres unmarked) [Esmolol] | approximately 9 minutes |  |  |  |  |  |  | 
NNCCc1ccccc1 [Phenelzine] | approximately 11.6 hours |  |  |  |  |  |  | TSF High [2, 6]: 30; TSF Low [2, 6]: 9; TSF ([2]; phenelzine at 45 mg/day): 13.3; patients with significant transient blood pressure increases (20 mmHg or more) immediately after taking [3]: approximately 50%; efficacy compared to all other treatments (in words) (depression): superior efficacy compared to all other treatments
CC(C)NCC(O)COc1ccc(COCCOC(C)C)cc1 (centres unmarked) [Bisoprolol] | 9 to 12 h | no significant inhibitory activity | no interference was observed | 13% | no interference was observed | -5% | no significant inhibitory activity | 
NCCc1ccc(O)cc1 [tyramine] |  |  |  |  |  |  |  | dietary tyramine ending up in systemic circulation [4]: less than 1%
COc1ccccc1OCCNCC(O)COc1cccc2[nH]c3ccccc3c12 (centres unmarked) [Carvedilol] |  | no significant inhibitory activity | no interference was observed | 23% | no interference was observed | 4% | no significant inhibitory activity | 
N[C@@H]1C[C@H]1c1ccccc1 (relative stereo) [Tranylcypromine] | approximately 2.5 hours |  |  |  |  |  |  | TSF High [2, 7]: 55; TSF Low [2, 7]: 30; TSF ([2]; tranylcypromine at 20 mg/day): 55; patients with significant transient blood pressure increases (20 mmHg or more) immediately after taking [3]: approximately 50%
